What follows are compounds tested against T1, hNPRA (Homo sapiens, UniProt P16066) (assay: NPRA Functional Cell Assay (cGMP HTRF, NPRA HEK JumpIn stable cells)). Conditions: cGMP production, 1 hour at 37° C., 10-point dose response.
T1 construct: expressed in transfected cells
T1 sequence (P16066 33-1061): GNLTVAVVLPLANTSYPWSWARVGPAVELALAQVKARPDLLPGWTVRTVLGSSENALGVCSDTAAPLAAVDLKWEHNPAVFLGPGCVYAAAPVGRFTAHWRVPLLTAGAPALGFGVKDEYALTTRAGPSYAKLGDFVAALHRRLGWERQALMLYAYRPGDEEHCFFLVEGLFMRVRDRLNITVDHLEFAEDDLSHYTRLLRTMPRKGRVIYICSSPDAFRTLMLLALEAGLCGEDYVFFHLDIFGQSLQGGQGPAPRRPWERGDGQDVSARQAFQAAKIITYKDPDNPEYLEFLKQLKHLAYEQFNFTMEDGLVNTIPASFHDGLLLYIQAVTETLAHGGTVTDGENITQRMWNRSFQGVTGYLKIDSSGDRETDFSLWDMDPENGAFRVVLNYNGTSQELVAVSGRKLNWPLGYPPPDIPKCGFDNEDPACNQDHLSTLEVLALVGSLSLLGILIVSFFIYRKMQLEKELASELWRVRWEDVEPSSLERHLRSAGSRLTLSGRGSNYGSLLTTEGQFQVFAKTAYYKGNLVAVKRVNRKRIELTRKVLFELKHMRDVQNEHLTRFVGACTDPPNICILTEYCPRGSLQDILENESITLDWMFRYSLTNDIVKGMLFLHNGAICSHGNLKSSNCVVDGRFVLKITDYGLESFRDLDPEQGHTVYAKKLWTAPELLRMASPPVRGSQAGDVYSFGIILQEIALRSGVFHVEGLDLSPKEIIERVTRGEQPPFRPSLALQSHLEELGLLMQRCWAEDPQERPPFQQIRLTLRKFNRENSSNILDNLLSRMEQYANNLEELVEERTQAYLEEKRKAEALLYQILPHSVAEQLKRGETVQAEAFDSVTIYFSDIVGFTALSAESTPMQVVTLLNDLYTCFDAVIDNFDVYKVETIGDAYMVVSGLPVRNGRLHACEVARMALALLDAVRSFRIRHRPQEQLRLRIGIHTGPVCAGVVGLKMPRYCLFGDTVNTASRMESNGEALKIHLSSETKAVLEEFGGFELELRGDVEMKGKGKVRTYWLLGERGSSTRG
Type: cell-based
Procedure, shortened: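 cGMP HTRF read-out after 1 hour compound treatment at 37° C. of human NPRA-expressing HEK JumpIn cells, 1500 cells/well, in buffer with phosphodiesterase inhibitors IBMX and RO20 (100 uM each). Signal converted to [cGMP] by calibration curve; EC50s fitted by 4-parameter logistic; 50 nM h-ANP as positive response.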

Compound	EC50
CN(C)S(=O)(=O)Nc1ccc([C@@H](CCN2CC[C@@H](O)C2)NC(=O)c2nc3cc4c(nc3s2)CC[C@H](C(C)(C)C)C4)cn1 (racemic) [Example 211, rac-(7S)-7-tert-butyl-N-[rac-(1R)-1-[6-(dimethylsulfamoylamino)-3-pyridyl]-3-[rac-(3R)-3-hydroxypyrrolidin-1-ium-1-yl]propyl]-5,6,7,8-tetrahydrothiazolo[5,4-b]quinoline-2-carboxamide; 2,2,2-trifluoroacetate]	764 nM
CC(C)CN(C)CC[C@@H](NC(=O)c1nc2cc3c(nc2s1)CC[C@H](C(C)(C)C)C3)c1ccc(NS(=O)(=O)N(C)C)nc1 (racemic) [Example 212, isobutyl-methyl-[rac-(3R)-3-[6-(dimethylsulfamoylamino)-3-pyridyl]-3-[rac-(7S)-7-tert-butyl-5,6,7,8-tetrahydrothiazolo[5,4-b]quinoline-2-carbonyl]amino]propyl]ammonium; 2,2,2-trifluoroacetate]	986 nM
CN(C)S(=O)(=O)Nc1ccc([C@@H](CCN2CC[C@H]2CO)NC(=O)c2nc3cc4c(nc3s2)CC[C@H](C(C)(C)C)C4)cn1 (racemic) [Example 213, rac-(7S)-7-tert-butyl-N-[rac-(1R)-1-[6-(dimethylsulfamoylamino)-3-pyridyl]-3-[rac-(2S)-2-(hydroxymethyl)azetidin-1-ium-1-yl]propyl]-5,6,7,8-tetrahydrothiazolo[5,4-b]quinoline-2-carboxamide; 2,2,2-trifluoroacetate]	1010 nM
CN(CC[C@@H](NC(=O)c1nc2cc3c(nc2s1)CC[C@H](C(C)(C)C)C3)c1ccc(NS(=O)(=O)N(C)C)nc1)Cc1ccn[nH]1 (racemic) [Example 214, methyl-(1H-pyrazol-5-ylmethyl)-[rac-(3R)-3-[6-(dimethylsulfamoylamino)-3-pyridyl]-3-[rac-(7S)-7-tert-butyl-5,6,7,8-tetrahydrothiazolo[5,4-b]quinoline-2-carbonyl]amino]propyl]ammonium; 2,2,2-trifluoroacetate]	1240 nM
CN(C)S(=O)(=O)Nc1ccc([C@@H](CCN2CCNC(=O)CC2)NC(=O)c2nc3cc4c(nc3s2)CC[C@H](C(C)(C)C)C4)cn1 (racemic) [Example 215, rac-(7S)-7-tert-butyl-N-[rac-(1R)-1-[6-(dimethylsulfamoylamino)-3-pyridyl]-3-(5-oxo-1,4-diazepan-1-ium-1-yl)propyl]-5,6,7,8-tetrahydrothiazolo[5,4-b]quinoline-2-carboxamide; 2,2,2-trifluoroacetate]	1610 nM
CC(C)(C)[C@H]1CCc2nc3sc(C(=O)N[C@H](CCN4CCC(O)CC4)c4ccc(-c5c[nH]c(=O)c(F)c5)cc4)nc3cc2C1 [Example 82, (7S)-7-tert-butyl-N-[(1R)-1-[4-(5-fluoro-6-hydroxy-3-pyridyl)phenyl]-3-(4-hydroxy-1-piperidyl)propyl]-5,6,7,8-tetrahydrothiazolo[5,4-b]quinoline-2-carboxamide]	196 nM
CC(C)(C)[C@H]1CCc2nc3sc(C(=O)N[C@H](CCN4CCC(O)CC4)c4ccc(-n5cncn5)cc4)nc3cc2C1 [Example 84, (7S)-7-tert-butyl-N-[(1R)-3-(4-hydroxy-piperidin-1-ium-1-yl)-1-[4-(1,2,4-triazol-1-yl)phenyl]propyl]-5,6,7,8-tetra-hydrothiazolo[5,4-b] quinoline-2-carboxamide; 2,2,2-trifluoro-acetate]	802 nM
CC(C)[C@]1(F)CCc2nc3sc(C(=O)N[C@H](CCN4CCC(O)CC4)c4ccc(N5CCOCS5(=O)=O)nc4)nc3cc2C1 [Example 217, (S)-N-((R)-1-(6-(3,3-dioxido-1,3,4-oxathiazinan-4-yl)pyridin-3-yl)-3-(4-hydroxypiperidin-1-yl)propyl)-7-fluoro-7-isopropyl-5,6,7,8-tetrahydrothiazolo[5,4-b]quinoline-2-carboxamide]	71 nM
CC1([C@H]2CCc3nc4sc(C(=O)N[C@H](CCN5CCC(O)CC5)c5ccc(N6CC(=O)NC6=O)nc5)nc4cc3C2)CC1 [Example 218, (S)-N-((R)-1-(6-(2,4-dioxoimidazolidin-1-yl)pyridin-3-yl)-3-(4-hydroxypiperidin-1-yl)propyl)-7-(1-methylcyclopropyl)-5,6,7,8-tetrahydrothiazolo[5,4-b]quinoline-2-carboxamide]	242 nM
CC(C)[C@]1(F)CCc2nc3sc(C(=O)N[C@H](CCN4CCC(O)CC4)c4ccc(N5CC(=O)NC5=O)nc4)nc3cc2C1 [Example 219, (S)-N-((R)-1-(6-(2,4-dioxoimidazolidin-1-yl)pyridin-3-yl)-3-(4-hydroxypiperidin-1-yl)propyl)-7-fluoro-7-isopropyl-5,6,7,8-tetrahydrothiazolo[5,4-b]quinoline-2-carboxamide]	384 nM
CC(C)(C)[C@H]1CCc2nc3sc(C(=O)N[C@H](CCN4CCC(O)CC4)c4ccc(N5CC(=O)NC5=O)nc4)nc3cc2C1 [Example 220, (S)-7-(tert-butyl)-N-((R)-1-(6-(2,4-dioxoimidazolidin-1-yl)pyridin-3-yl)-3-(4-hydroxypiperidin-1-yl)propyl)-5,6,7,8-tetrahydrothiazolo[5,4-b]quinoline-2-carboxamide]	277 nM
O=C1CN(c2ccc([C@@H](CCN3CCC(O)CC3)NC(=O)c3nc4cc5c(nc4s3)CC[C@H](C3(C(F)(F)F)CC3)C5)cn2)C(=O)N1 [Example 221, (S)-N-((R)-1-(6-(2,4-dioxoimidazolidin-1-yl)pyridin-3-yl)-3-(4-hydroxypiperidin-1-yl)propyl)-7-(1-(trifluoromethyl)cyclopropyl)-5,6,7,8-tetrahydrothiazolo[5,4-b]quinoline-2-carboxamide]	1140 nM
CC(C)(C)[C@H]1CCc2nc3sc(C(=O)N[C@H](CCN4CCC(C(=O)O)CC4)c4ccc(N5CC(=O)NC5=O)nc4)nc3cc2C1 [Example 222, 1-((R)-3-((S)-7-(tert-butyl)-5,6,7,8-tetrahydrothiazolo[5,4-b]quinoline-2-carboxamido)-3-(6-(2,4-dioxoimidazolidin-1-yl)pyridin-3-yl)propyl)piperidine-4-carboxylic acid]	626 nM
CC(C)(C)[C@H]1CCc2nc3sc(C(=O)N[C@H](CCN4CCC(C(=O)O)CC4)c4ccc(-c5cnc(O)c(F)c5)cc4)nc3cc2C1 [Example 223, 1-((R)-3-((S)-7-(tert-butyl)-5,6,7,8-tetrahydrothiazolo[5,4-b]quinoline-2-carboxamido)-3-(4-(5-fluoro-6-hydroxypyridin-3-yl)phenyl)propyl)piperidine-4-carboxylic acid]	200 nM
CC(C)(C)[C@H]1CCc2nc3sc(C(=O)N[C@H](CCN4CCC(C(=O)O)CC4)c4ccc(-c5cnc(O)c(F)c5)cc4)nc3cc2C1 [Example 224, sodium 1-((R)-3-((S)-7-(tert-butyl)-5,6,7,8-tetrahydrothiazolo[5,4-b]quinoline-2-carboxamido)-3-(4-(5-fluoro-6-hydroxypyridin-3-yl)phenyl)propyl)piperidine-4-carboxylate]	198 nM
CC(C)(C)[C@H]1CCc2nc3sc(C(=O)N[C@H](CCN)c4cccc(C(=O)N[C@H]5CCNC5)c4)cc3cc2C1 [Example 225]	292 nM
CN(C)S(=O)(=O)Nc1ccc([C@@H](CCN2CCC(O)CC2)NC(=O)c2nc3cc4c(nc3s2)CC[C@H](C(C)(C)C)C4)cc1F [Example 226, (S)-7-(tert-butyl)-N-((R)-1-(4-((N,N-dimethylsulfamoyl)amino)-3-fluorophenyl)-3-(4-hydroxypiperidin-1-yl)propyl)-5,6,7,8-tetrahydrothiazolo[5,4-b]quinoline-2-carboxamide]	677 nM
CCS(=O)(=O)c1ccc([C@@H](CCN2CCC(O)CC2)NC(=O)c2nc3cc4c(nc3s2)CC[C@H](C(C)(C)C)C4)cn1 [Example 227, (S)-7-(tert-butyl)-N-((R)-1-(6-(ethylsulfonyl)pyridin-3-yl)-3-(4-hydroxypiperidin-1-yl)propyl)-5,6,7,8-tetrahydrothiazolo[5,4-b]quinoline-2-carboxamide]	696 nM
CC(C)(C)[C@H]1CCc2nc3sc(C(=O)N[C@H](CCN4CCC(O)CC4)c4ccc(-c5cc(F)c(O)cn5)cc4)nc3cc2C1 [Example 228, (S)-7-(tert-butyl)-N-((R)-1-(4-(4-fluoro-5-hydroxypyridin-2-yl)phenyl)-3-(4-hydroxypiperidin-1-yl)propyl)-5,6,7,8-tetrahydrothiazolo[5,4-b]quinoline-2-carboxamide]	305 nM

Reference: patent US12440496B2, “Natriuretic peptide receptor a agonists useful for the treatment of cardiometabolic diseases, kidney disease and diabetes” (Merck Sharp & Dohme LLC, priority 2019, dated 2025)
